These results are taken from patent publication US9301923B2, “Lipids, lipid compositions, and methods of using them” (NOVARTIS AG, priority 2009, dated 2016).

In general, pKa refers to the pH at which an ionisable group is half protonated. By inhibition is commonly meant the change of the read-out against control, counted positive when it falls.

Data set [1] is described as follows: pKa of the lipid by TNS fluorescence. The format is physicochemical. The settings on record: pKa. A digest of the protocol: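 Lipid dissolved in ethanol (2 mM stock) and measured with TNS across eight buffers of differing pH, in water at standard temperature and pressure. Normalized fluorescence intensity plotted against pH and points joined by a smooth line to derive pKa, precise to about 0.2 units.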

For data set [2], the system named is PLK-1 mRNA in HepG2 tumors. In words: HepG2 tumor study, PLK-1 mRNA KD in tumor tissue. The format is in vivo, human. To be noted: Mus musculus, HepG2, iv, 24 h, HepG2 tumor in nude mice, 3 × 3 mg/kg siRNA iv, tumors harvested 24 hrs after the last dose; read-out: PLK1 % inhibition. The source says:
(§1) Formulated siRNAs are made up of double stranded siRNA sequences specific to a target mRNA sequence, and are in the form of lipid nucleotid particles (LNPs) containing cationic lipids, stealth lipids and neutral lipids, as provided in the Examples below. The siRNA construct for use in targeting the liver is specific to Factor VII. The siRNA construct for use in targeting tumors is specific to PLK1-424, which is published by Judge et al., See, J Clin Invest. 2009 March; 119(3):661-73; doi: 10.1172/JCI37515). • 1. FVII siRNA duplex sequence
HepG2 tumors are established in female nude mice by sc injection of 5×10^6 cells in 100 ul PBS into the left flank. Mice are randomized into treatment groups 10-14 days after seeding as tumors reached an average size of 150 mm^3. siRNA formulated LNP formulations are administered at 3×3 mg/kg dose levels intravenously via the lateral tail vein calculated on a mg siRNAs/kg basis according to individual animal weights (10 ml/kg injection volume). Mice are euthanized by CO2 inhalation at various time points and the tumors are harvested 24 hrs after the last dose for mRNA quantitation. Lipids with a wide range of pKa (5.3-6.6) are used in the LNP formulations. Tumors are measured in 2 dimensions (width×length) to assess tumor growth using digital calipers. Tumor volume is calculated using the equation [a×b×b/2], where a=largest diameter and b=smallest diameter.
(§2) About 30-50 mg tumor tissue is homogenized in tissue lysis buffer in a Qiagen homogenizer followed by centrifugation to clarify lysates. Total RNA is isolated using RNeasy isolation kit (catalog number 74106) according to the manufacture's protocol. PLK-1 mRNA is analyzed by quantitative PCR and normalized to human GAPDH. Applied Biosystems human PLK-1 gene expression assay Hs00983229_m1 and human GAPDH endogenous control cat number 4326317E are used for mRNA detection.
(§3) The pKa in all tables refers to the pKa of the cationic lipid. Where multiple doses are indicated (e.g., 3×5), the first number indicates the number of doses given and the second number indicates the amount per dose in mg siRNA (biologically active agent) per kg mouse. In general the multiple doses are administered at 24 hour intervals, and tissues for mRNA quantitation are harvested 24 hours after the last dose.

The nature of data set [3]: Particle size and PDI by dynamic light scattering (Malvern Zetasizer). Type of data set: physicochemical. Set-up: Final size: unit not given here. The settings on record: for Final size: LNP formulation, Table 10. A digest of the protocol:
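Nanoparticles diluted in PBS to a count rate of about 200-400 kcts and measured by dynamic light scattering; size given as intensity-weighted average diameter, with polydispersity index from the same measurement.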

In another data set the test system is Factor VII. The data set can be described thus: Factor VII activity assay, in vivo liver delivery of FVII siRNA LNP. Set-up: species or system mouse. To be noted: ~48 h. A digest of the protocol: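 Female CD-1 mice (~25 g) given a single i.v. tail-vein dose of FVII siRNA in LNPs (cationic, stealth, neutral lipids), dosed as mg siRNA/kg. Plasma collected ~48 h post-injection; FVII activity read against a standard curve from pooled vehicle-control plasma.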

Data set [4] concerns PLK-1 mRNA in Hep3B tumors. The data set can be described thus: Hep3B tumor study, PLK-1 mRNA KD in tumor tissue. Type of data set: in vivo, human. The settings on record: for PLK1 inhibition %: Hep3B tumor, mouse, i.v., LNP composition as in the source; for % KD: formulation containing E0011 and S004.
Source text: as §1
Hep3B tumors are established in female nude mice by sc injection of 7×10^6 cells in 100 ul PBS into the left flank. Mice are randomized into treatment groups 10-14 days after seeding as tumors reached an average size of 100 mm^3. siRNA formulated LNP formulations are administered at various dose levels intravenously via the lateral tail vein calculated on a mg siRNAs/kg basis according to individual animal weights (10 ml/kg injection volume). Mice are euthanized by CO2 inhalation at various time points and the tumors are harvested for mRNA quantitation. Lipids with a wide range of pKa (5.3-6.6) are used in the LNP formulations. Tumors are measured in 2 dimensions (width×length) to assess tumor growth using digital calipers. Tumor volume is calculated using the equation [a×b×b/2], where a equals the largest diameter and b equals the smallest diameter.
as §2, §3

[5] abbreviates: dose 3 mg/kg siRNA i.v., lipid/DSPC/CHOL/AVANTI 880150P 50/28/18/4, N/P 3.43.
The mark [6] stands for this setting: dose 3 mg/kg siRNA i.v., lipid/no neutral lipid/CHOL/AVANTI 880150P 50/0/46/4, N/P 3.43.
Setting [7] is: lipid/DSPC/CHOL/AVANTI 880150P 50/28/18/4, N/P 3.43.
[8] abbreviates: lipid/no neutral lipid/CHOL/AVANTI 880150P 50/0/46/4, N/P 3.43.
[9] abbreviates: lipid/no neutral lipid/CHOL/S006 60/0/37/3, N/P 3.
The mark [10] stands for this setting: lipid/no neutral lipid/CHOL/S010 60/0/37/3, N/P 3.
Where [11] appears, read: dose 1 mg/kg siRNA i.v., lipid/no neutral lipid/CHOL/GM-020 NOF 60/0/36/4, N/P 3.
Where [12] appears, read: LNP formulation with PLK1 siRNA, helper, neutral and stealth lipid, molar ratio and N/P as in the table.
Setting [13] is: lipid/no neutral lipid/CHOL/GM-020 NOF 60/0/36/4, N/P 3.

Where “and” joins values, the source holds several entries; their conditions need not be identical. Identical values can stand only once.

In turn, `CCCCC/C=C\C/C=C\CCCCCCCCOC[C@@H](CN1CCC[C@H]1C)OCCCOC(=O)CCC(=O)O[C@H]1CC[C@@]2(C)C(=CCC3C2CC[C@@]2(C)C3CC[C@@H]2[C@H](C)CCCC(C)C)C1` (stereo partly drawn) [E0162] registered a pKa in data set [1] of 6.07. The inhibition at 3 mg/kg in data set [2] was determined as 0%. In data set [3], this compound registered a Final size of 114.4.

In turn, `CCCCCCCC/C=C\CCCCCCCCOCC(CN1CCOCC1)OCCOCCNC(=O)O[C@H]1CC[C@@]2(C)C(=CC[C@H]3[C@@H]4CC[C@H]([C@H](C)CCCC(C)C)[C@@]4(C)CC[C@@H]32)C1` (stereo partly drawn) [E0175] showed a pKa in data set [1] of 5.67. The inhibition at 3 mg/kg in data set [2] was 49%. The Final size is listed as 93.51 in data set [3] (molar ratio 50/43/5/2, N/P 3.8) and 78.74 in data set [3] (molar ratio 60/38/2, N/P 4).

In the case of `CCCCC/C=C\C/C=C\CCCCCCCCOCC(CN1CCC(OC)C1)OCCOCCO[C@H]1CC[C@@]2(C)C(=CC[C@H]3[C@@H]4CC[C@H]([C@H](C)CCCC(C)C)[C@@]4(C)CC[C@@H]32)C1` (stereo partly drawn) [E0024], the FVII inhib % in the data set on Factor VII (dose 1 mg/kg siRNA i.v., lipid/DSPC/CHOL/AVANTI 880150P 50/28/18/4, N/P 3.43) turned out to be 85.3%; with Factor VII (dose 1 mg/kg siRNA i.v., lipid/no neutral lipid/CHOL/AVANTI 880150P 50/0/46/4, N/P 3.43), 95.7%; in the data set on Factor VII (dose 1 mg/kg siRNA i.v., lipid/no neutral lipid/CHOL/S006 60/0/37/3, N/P 3), 83.8%; in the data set on Factor VII (dose 1 mg/kg siRNA i.v., lipid/no neutral lipid/CHOL/S010 60/0/37/3, N/P 3), 72.2%; with Factor VII (setting [5]) it was 99.9%; in the data set with Factor VII (setting [6]), 99.5%. The compound further gave a pKa in data set [1] of 6.62. Further, the “Final size (nm)” value in data set [3] (LNP formulation with PLK1 siRNA, helper, neutral and stealth lipid, molar ratio and N/P as in the table, stealth lipid S004, molar ratio 60/38/0/2, N/P 3) is 120.6 nm; in data set [3] (LNP formulation with PLK1 siRNA, helper, neutral and stealth lipid, molar ratio and N/P as in the table, stealth lipid S011, molar ratio 40/48/10/2, N/P 3), 88.46 nm; in data set [3] (setting [7]), 100 nm; in data set [3] (setting [8]) it was 149 nm and 125 nm; in data set [3] (setting [9]), 98.53 nm; in data set [3] (setting [10]) it was 96.09 nm. Further, the PDI was 0.148 in data set [3] (setting [7]); 0.092 and 0.08 in data set [3] (setting [8]); 0.12 in data set [3] (setting [9]); 0.137 in data set [3] (setting [10]). Moreover, the PLK1 inhibition % in data set [4] (1 × 10 mg siRNA/kg) is on record as 15%; in data set [4] (4 × 5 mg siRNA/kg), 23%.

`CCCCC/C=C\C/C=C\CCCCCCCCOCC(CN1CCOCC1)OCCOCCO[C@H]1CC[C@@]2(C)C(=CC[C@H]3[C@@H]4CC[C@H]([C@H](C)CCCC(C)C)[C@@]4(C)CC[C@@H]32)C1` (stereo partly drawn) [E0011]: the FVII inhib % came out at 86.5% in the data set with Factor VII (setting [5]) and 92.3% in the data set on Factor VII (setting [6]). This compound returned a pKa in data set [1] of 5.32. For the same compound, the Final size in data set [3] (stealth lipid S018) is recorded as 113.2; in data set [3] (stealth lipid S019), 110; in data set [3] (stealth lipid S020), 74.42. In addition, the “Final size (nm)” value in data set [3] (setting [7]) came out at 111 nm; in data set [3] (setting [8]), 108 nm. For the same compound, the PDI came out at 0.221 in data set [3] (setting [7]) and 0.23 in data set [3] (setting [8]). The values for the PLK1 inhibition % in data set [4] (1 × 5 mg siRNA/kg) and in data set [4] (3 × 10 mg siRNA/kg) were 66% and 71%, respectively. Further, the “% KD” value stood at 70% in data set [4] (Table 9, 1×10 mg/kg siRNA) and 67% in data set [4] (Table 9, 3×5 mg/kg siRNA).

With `CCCCC/C=C\C/C=C\CCCCCCCCOCC(CN1CCCCC1)OCCCOCCCO[C@H]1CC[C@@]2(C)C(=CC[C@H]3[C@@H]4CC[C@H]([C@H](C)CCCC(C)C)[C@@]4(C)CC[C@@H]32)C1` (stereo partly drawn) [E0077], in the data set on Factor VII (setting [11]), the FVII inhib % was determined as 26.8%. This compound returned a pKa in data set [1] of 5.79. Moreover, the “Final size (nm)” value in data set [3] (setting [12]) turned out to be 120.8 nm. Moreover, in data set [3] (setting [13]), the “Final size (nm)” value worked out at 109.8 nm and the PDI is listed as 0.127. In data set [4] (1 × 5 mg siRNA/kg), this compound yielded a PLK1 inhibition % of 77%.

On to `CCCCC/C=C\C/C=C\CCCCCCCCCCOCC(CN1CCCC1C)OCCCOCCCO[C@H]1CC[C@@]2(C)C(=CC[C@H]3[C@@H]4CC[C@H]([C@H](C)CCCC(C)C)[C@@]4(C)CC[C@@H]32)C1` (stereo partly drawn) [E0095], for which the FVII inhib % with Factor VII (setting [11]) is 13%. The compound also yielded a pKa in data set [1] of 5.84. Further, the “Final size (nm)” value in data set [3] (setting [12]) stood at 96.09 nm. Further, in data set [3] (setting [13]), the “Final size (nm)” value amounted to 125.1 nm and the PDI came to 0.091. The same compound gave a PLK1 inhibition % in data set [4] (1 × 0.1 mg siRNA/kg) of 23%.

As to `CCCCC/C=C\C/C=C\CCCCCCCCOCC(CN1CCC(CCC)C1)OCCOCCO[C@H]1CC[C@@]2(C)C(=CCC3C2CC[C@@]2(C)C3CC[C@@H]2[C@H](C)CCCC(C)C)C1` (stereo partly drawn) [E0025], the FVII inhib % worked out at 63% in the data set with Factor VII (setting [5]) and 94.2% with Factor VII (setting [6]). Also, in data set [1], the pKa was 5.45. Also, the “Final size (nm)” value was determined as 118.8 nm in data set [3] (LNP formulation with PLK1 siRNA, helper, neutral and stealth lipid, molar ratio and N/P as in the table, stealth lipid S004, molar ratio 45/43/10/2, N/P 4); 85.63 nm in data set [3] (LNP formulation with PLK1 siRNA, helper, neutral and stealth lipid, molar ratio and N/P as in the table, stealth lipid S011, molar ratio 40/48/10/2, N/P 4); 95.73 nm in data set [3] (LNP formulation with PLK1 siRNA, helper, neutral and stealth lipid, molar ratio and N/P as in the table, stealth lipid S011, molar ratio 60/38/2, N/P 4); 97 nm in data set [3] (setting [7]); 73 nm in data set [3] (setting [8]). In addition, the PDI in data set [3] (setting [7]) was 0.22; in data set [3] (setting [8]), 0.12. The compound also displayed a PLK1 inhibition % in data set [4] (1 × 1 mg siRNA/kg) of 27%.
